Measured values reported in publication PMC3961306, “Comparison of the Cancer Gene Targeting and Biochemical Selectivities of All Targeted Kinase Inhibitors Approved for Clinical Use” (PLoS ONE, 2014).

How the values were obtained:
[1] = test system: mutant versus wild-type cell lines of the 44 cell line panel; assay: Anova analysis of cell panel IC50s against cancer gene changes; standardized mean difference (targetedness); settings: BRAF oncogene targeting, Figure 5D
[2] = biological target: panel of more than 300 wild-type and mutant kinases (313 kinase panel) (Homo sapiens, UniProt O75914); assay: Kinase profiling in a biochemical assay panel (mobility shift assays and ELISA), %-inhibition at 1 μM; selectivity entropy; settings: kinase PAK3; 1 μM
[3] = biological target: T1, panel of more than 300 wild-type and mutant kinases (313 kinase panel) (Homo sapiens, UniProt P42679); assay: as above
T1 sequence (P42679 1-507): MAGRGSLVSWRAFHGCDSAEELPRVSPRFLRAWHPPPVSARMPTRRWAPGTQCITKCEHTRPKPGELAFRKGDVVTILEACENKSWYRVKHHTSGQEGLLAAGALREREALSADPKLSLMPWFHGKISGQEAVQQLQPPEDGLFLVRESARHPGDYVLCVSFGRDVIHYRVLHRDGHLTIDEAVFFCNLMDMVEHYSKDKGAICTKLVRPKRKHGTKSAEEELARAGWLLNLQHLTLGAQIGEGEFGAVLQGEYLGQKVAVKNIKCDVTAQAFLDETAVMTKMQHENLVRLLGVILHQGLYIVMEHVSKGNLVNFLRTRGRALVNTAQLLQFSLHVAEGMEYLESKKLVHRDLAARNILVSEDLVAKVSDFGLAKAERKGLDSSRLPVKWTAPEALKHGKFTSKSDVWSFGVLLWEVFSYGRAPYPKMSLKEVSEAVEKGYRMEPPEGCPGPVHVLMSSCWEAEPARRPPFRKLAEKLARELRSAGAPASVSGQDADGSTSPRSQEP

[4] = biological target: T2, panel of more than 300 wild-type and mutant kinases (313 kinase panel) (Homo sapiens, UniProt O00444); assay: as above
T2 sequence (O00444 1-970): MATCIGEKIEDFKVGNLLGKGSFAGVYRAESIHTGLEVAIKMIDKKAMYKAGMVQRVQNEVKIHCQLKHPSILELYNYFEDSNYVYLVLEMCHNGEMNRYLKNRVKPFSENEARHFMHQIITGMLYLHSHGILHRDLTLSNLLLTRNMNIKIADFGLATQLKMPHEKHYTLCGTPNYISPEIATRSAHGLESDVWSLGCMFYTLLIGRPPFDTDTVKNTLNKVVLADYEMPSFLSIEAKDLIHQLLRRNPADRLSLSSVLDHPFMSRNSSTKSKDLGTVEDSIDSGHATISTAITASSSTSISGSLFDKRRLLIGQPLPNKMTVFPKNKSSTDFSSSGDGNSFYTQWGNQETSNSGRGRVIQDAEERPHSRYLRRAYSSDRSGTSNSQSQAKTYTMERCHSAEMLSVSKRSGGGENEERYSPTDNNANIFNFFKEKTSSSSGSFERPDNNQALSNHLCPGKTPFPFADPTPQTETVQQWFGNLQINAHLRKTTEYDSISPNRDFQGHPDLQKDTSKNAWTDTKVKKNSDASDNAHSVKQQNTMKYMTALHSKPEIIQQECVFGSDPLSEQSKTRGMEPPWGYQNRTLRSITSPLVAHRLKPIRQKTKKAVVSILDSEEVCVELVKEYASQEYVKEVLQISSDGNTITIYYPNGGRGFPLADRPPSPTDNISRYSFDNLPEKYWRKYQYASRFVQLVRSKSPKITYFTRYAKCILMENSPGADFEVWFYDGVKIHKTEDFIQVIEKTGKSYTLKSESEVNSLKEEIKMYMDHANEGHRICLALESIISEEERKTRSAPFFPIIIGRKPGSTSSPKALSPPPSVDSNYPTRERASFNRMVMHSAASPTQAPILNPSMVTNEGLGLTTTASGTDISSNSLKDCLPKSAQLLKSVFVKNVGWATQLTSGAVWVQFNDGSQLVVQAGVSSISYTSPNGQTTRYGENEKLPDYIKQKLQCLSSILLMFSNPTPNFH

[5] = test system: FKBP12; settings: value indicates binding interaction with FKBP12; read-out: IC50 (nM) on relevant targets: mTOR; cited from earlier work

Sequence of panel of more than 300 wild-type and mutant kinases (313 kinase panel) (Homo sapiens, UniProt O75914) (O75914 whole entry, change not shown): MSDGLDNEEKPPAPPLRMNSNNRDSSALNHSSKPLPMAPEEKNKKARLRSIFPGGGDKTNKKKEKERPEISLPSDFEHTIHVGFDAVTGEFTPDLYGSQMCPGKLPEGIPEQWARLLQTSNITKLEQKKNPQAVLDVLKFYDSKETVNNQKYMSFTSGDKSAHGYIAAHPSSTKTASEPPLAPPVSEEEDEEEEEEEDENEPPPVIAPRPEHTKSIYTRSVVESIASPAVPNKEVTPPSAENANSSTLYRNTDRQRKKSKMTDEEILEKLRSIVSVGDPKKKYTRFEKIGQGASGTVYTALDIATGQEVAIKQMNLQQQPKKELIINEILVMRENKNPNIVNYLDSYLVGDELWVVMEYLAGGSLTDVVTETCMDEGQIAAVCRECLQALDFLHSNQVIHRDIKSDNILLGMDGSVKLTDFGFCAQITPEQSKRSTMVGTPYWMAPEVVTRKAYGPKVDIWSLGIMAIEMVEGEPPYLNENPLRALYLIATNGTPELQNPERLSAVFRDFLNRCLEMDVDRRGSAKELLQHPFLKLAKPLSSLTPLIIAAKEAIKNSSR

CC(C)(C)c1nc(-c2cccc(NS(=O)(=O)c3c(F)cccc3F)c2F)c(-c2ccnc(N)n2)s1 [dabrafenib]
targetedness (standardized logIC50 difference) [1]: -4.96

Cc1nc(Nc2ncc(C(=O)Nc3c(C)cccc3Cl)s2)cc(N2CCN(CCO)CC2)n1 [dasatinib]
%-inhibition of PAK3 [2]: -1.28%

C#Cc1cccc(Nc2ncnc3cc(OCCOC)c(OCCOC)cc23)c1 [erlotinib]
%-inhibition of CTK ([3]; 1 µM): 22%
%-inhibition of PLK4 ([4]; 1 µM): 9%

CO[C@H]1C[C@@H]2CC[C@@H](C)[C@@](O)(O2)C(=O)C(=O)N2CCCC[C@H]2C(=O)O[C@H]([C@H](C)C[C@@H]2CC[C@@H](OCCO)[C@H](OC)C2)CC(=O)[C@H](C)/C=C(\C)[C@@H](O)[C@@H](OC)C(=O)[C@H](C)C[C@H](C)/C=C/C=C/C=C/1C [everolimus]
IC50 [5]: ~2 nM

CS(=O)(=O)CCNCc1ccc(-c2ccc3ncnc(Nc4ccc(OCc5cccc(F)c5)c(Cl)c4)c3c2)o1 [lapatinib]
%-inhibition of CTK ([3]; kinase CTK, compound at 1 μM): -0.699%
%-inhibition of PLK4 ([4]; 1 µM): -4.47%
%-inhibition of PAK3 [2]: 4.27%

Cc1cn(-c2cc(NC(=O)c3ccc(C)c(Nc4nccc(-c5cccnc5)n4)c3)cc(C(F)(F)F)c2)cn1 [nilotinib]
%-inhibition of CTK ([3]; 1 µM): 7%
%-inhibition of PLK4 ([4]; kinase PLK4, 1 μM): 21%
%-inhibition of PAK3 [2]: -4%

Cc1ccc(Nc2nccc(N(C)c3ccc4c(C)n(C)nc4c3)n2)cc1S(N)(=O)=O [pazopanib]
%-inhibition of CTK ([3]; kinase CTK, compound at 1 μM): 4.69%
%-inhibition of PLK4 ([4]; kinase PLK4, 1 μM): 72%
%-inhibition of PAK3 [2]: 6%

CCN(CC)CCNC(=O)c1c(C)[nH]c(/C=C2\C(=O)Nc3ccc(F)cc32)c1C [sunitinib]
%-inhibition of CTK ([3]; kinase CTK, compound at 1 μM): 28%
%-inhibition of PLK4 ([4]; kinase PLK4, 1 μM): 58%

CO[C@H]1C[C@@H]2CC[C@@H](C)[C@@](O)(O2)C(=O)C(=O)N2CCCC[C@H]2C(=O)O[C@H]([C@H](C)C[C@@H]2CC[C@@H](OC(=O)C(C)(CO)CO)[C@H](OC)C2)CC(=O)[C@H](C)/C=C(\C)[C@@H](O)[C@@H](OC)C(=O)[C@H](C)C[C@H](C)/C=C/C=C/C=C/1C [temsirolimus]
IC50 [5]: ~2 nM
